In the pKa sets of Baltruschat and Czodrowski (2020):
Values joined by “and” are separate entries in the source; they are usually repeats but may differ in a detail not shown here. Identical values can stand only once.

Conditions: acidic group

| Compound | pKa |
| --- | --- |
| C[Si](C)(C)CCCC(=O)O | 4.89 |
| C[Si](C)(C)CCCCCC(=O)O | 5.06 |
| CCCCCCCc1c(-c2ccccc2)nn(-c2ccccc2)c1O | 8 |
| CC(=O)CC(=S)Nc1cccc(C)c1 | 7.56 |
| N#C/C(=N\O)C(N)=O | 5.12 |
| Cc1c(Cl)c([N+](=O)[O-])cc2c1nnn2O | 3.1 |
| Cc1cc(=O)oc2cccc(O)c12 | 8.26 |
| Nc1ccc(O)c([N+](=O)[O-])c1 | 7.81 |
| CC(=O)CC(=O)C(C)C | 9.46 |
| Clc1c(Cl)c(Cl)c2[nH]nnc2c1Cl | 4.52 |
| Oc1c(Cl)cc(Cl)c(Cl)c1C[NH+]1CCOCC1 | 4.84 |
| Cc1cc(O)ccc1Cl | 9.4 |
| O=c1c2[nH]cnc2ncn1O | 5.66 |
| O=C(O)CC[C@H]1CC[C@H](O)CC1 | 4.86 |
| C=C(C)/C(C)=C(\C)O | 12 |
| Nc1ccc(S(=O)(=O)Nc2ccc(O)cn2)cc1 | 7.5 |
| O=C(O)[C@H]1C[C@@H]2CC[C@H]1C2 | 5.02 |
| O=C1Cc2cc(O)ccc21 | 7.24 |
| N/C(=N\O)c1ncnc2nc[nH]c12 | 9.4 |
| O=C(O)CCc1ccccc1 | 4.59 |
| Oc1cc(Br)cc(Br)c1 | 8.01 |
| CC[C@@H](C(=O)O)[C@@]1(O)C[C@H]2CC[C@@H]1C2 | 4.26 |
| Sc1nc2cc3ccccc3cc2[nH]1 | 9.84 |
| Cc1cc2cccc(O)c2nc1C | 10.2 |
| Cc1ccc(C(=O)O)c(C)c1 | 4.18 |

| Compound | pKa |
| --- | --- |
| O=C(O)c1cc[nH+]cc1 | 1.71 |
| C/C=C/CCC(=O)O | 4.72 |
| [NH3+]CCCCC(=O)O | 4.26 |
| CC(=O)CC(=O)c1ccc[se]1 | 8.55 |
| CC(C)c1ccc(Br)c(O)c(=O)c1 | 6.28 |
| Cc1ccccc1S(=O)O | 1.47 |
| Cc1ccc(NC(=S)c2ccccc2)cc1 | 10.8 |
| O=[N+]([O-])c1ccc(S(=O)O)cc1 | 1.86 |
| Cc1ccc(C(=O)O)c(Cl)c1 | 3.27 |
| O=C(O)C12CCC(C1)C2 | 3.96 |
| Cn1cnc(C(=O)[O-])c1C(=O)O | 3.9 |
| C[n+]1cc(O)c2ccccc2c1 | 4.93 |
| CC[Se](=O)O | 5.28 |
| c1ncc2[nH]cnc2n1 | 8.92 |
| Cc1nnn[nH]1 | 5.52 |
| Cc1cc(I)ccc1C(=O)O | 3.79 |
| O=[N+]([O-])c1ccc(S(=O)(=O)Nc2ccccc2)cc1 | 7.41 |
| CC1(C)CC(=O)C(C=O)C(=O)C1 | 3.65 |
| Nc1[nH]cc(O)[nH+]1 | 4.8 |
| Cc1cccc(C(=O)O)c1O | 3.02 |
| O=C(O)CSCCc1ccccc1 | 3.8 |
| Oc1ccccc1-c1ccccc1 | 9.99 |
| NS(=O)(=O)C(F)(F)I | 6.79 |
| O/N=C(/Cc1ccccc1)NO | 10.7 |
| O=C(O)C1CCCc2ccccc2O1 (configuration not stated) | 3.63 |

Same assay, conditions: basic group

| Compound | pKa |
| --- | --- |
| c1ccc2c(c1)C1CCN2c2ccccc21 | 4.54 |
| Cc1c(C(C)C)c(=O)n(-c2ccccc2)n1C | 2.4 |
| CC1=Nc2ccc(C)cc2N=C(C)C1 | 4 |
| CCN1[C@H](C)[C@@H]1C (some centres not stated) | 8.57 |
| Cc1ncncc1N | 3.15 |
| [S-]c1ccnc2ccccc12 | 8.83 |
| CCCCCCCCCCCCNc1ccccc1 | 4.12 |
| Cc1cccc2cc3ccccc3nc12 | 4.5 |
| CN(C)c1cccc(Cl)c1 | 3.83 |
| N=C(c1ccccc1)c1ccccc1 | 6.82 |
| Cc1nc(-c2ccccc2)[nH]c1C | 7 |
| CCS[C@@H]1C(O)C2CC(=O)CC1N2C (some centres not stated) | 4.9 and 5.4 |
| CCCCCCCCN(CCO)CC(C)O (configuration not stated) | 8.2 |
| CC(C)C[C@H]([NH3+])C(=O)N[C@@H](Cc1c[nH]cn1)C(=O)[O-] | 6.69 |
| C[C@@H]1CCC[C@H](N(C)C)C1 | 10.5 |
| Nc1ccc(-c2ncc(-c3ccc(Cl)cc3)o2)cc1 | 2.87 |
| C[C@H]([NH3+])[C@@H](C)N | 6.84 |
| c1cnc2c(c1)ccc1[nH+]cccc12 | 1 |
| CCCN(CC(O)CC)CC(O)CC (configuration not stated) | 9 |
| CCOC(=O)C1(c2ccccc2)CCN(CC)CC1 | 9.03 |
| CN(C(=O)c1ccccc1)c1ccccn1 | 1.44 |
| C[C@@H]1CN[C@@H](C)CN1 | 9.76 |
| Cc1cc(C)n(-c2cc(C)n(C)n2)n1 | 2.19 |
| CCCCCCCCCCCCCCCCN(CCCCCCCCCCCCCCCC)C(=O)[C@H](C)NC(=O)[C@H](Cc1c[nH]cn1)NC(=O)CCCCC[N+](C)(C)C.[Br-] | 7.2 |
| CN1CCCC[C@H]1c1cccnc1 | 5.42 |
| Nc1nc([O-])c2ncn([C@@H]3C=C[C@H](CO)C3)c2n1 | 9.68 |

| Compound | pKa |
| --- | --- |
| CCN(CC)C/C(C)=N/[O-] | 11 |
| Cc1cc2cccc(O)c2nc1C | 5.86 |
| [NH3+]c1ccc(/C=N/NC(=O)c2ccncc2)cc1 | 3.2 |
| CCCCCCCCCCCCCCCN | 10.6 |
| O=Cc1ccc(-c2cnc(-c3ccccc3)o2)cc1 | 0.57 |
| Cc1nn(C)c(C)c1C | 4.48 |
| NC(N)=S | -0.96 |
| N#Cc1ccc(N)c2ccccc12 | 1.2 |
| O=C([O-])C(NCC[NH2+]C(C(=O)[O-])c1ccccc1O)c1ccccc1O (configuration not stated) | 6.32 |
| CCCNc1ncnc2c1cnn2C | 4.25 |
| c1ccc(N2CCCC2)cc1 | 4.3 |
| OCCN(CCc1nnn[n-]1)CCc1nnn[n-]1 | 8.9 |
| C=CC(=O)OCCN(CC)CC | 8.55 |
| NCCCc1ccccn1 | 10.1 |
| OCCCCc1cccnc1 | 5.7 |
| [NH3+]C1CCN(Cc2ccccc2)CC1 | 7.05 |
| CCSC(=O)c1ccc(Cl)cc1 | -5.02 |
| CN(C)CCOCC[NH+](C)C | 8.21 |
| CC(O)CN(CCO)C(C)(C)C (configuration not stated) | 9.2 |
| N=c1c2ccccc2[nH]c2ccccc12 | 9.99 |
| Cc1ccccc1NC1CCCCC1 | 5.34 |
| COc1ccnc2ccccc12 | 6.45 |
| CCCNCCC | 11 |
| c1ccc(-c2nnc(-c3ccccc3)o2)cc1 | 1.96 |
| CC(C)CCCC(C)N (configuration not stated) | 10.3 |
| Clc1cc2cccnc2c2ncccc12 | 4.22 |

| Compound | pKa |
| --- | --- |
| C1CCN(CCN2CCCCC2)CC1 | 9.43 |
| CCN(CC)CC(=O)Nc1cc(C)cc(C)c1 | 8.01 |
| c1ncc2[nH]cnc2n1 | 2.45 |
| C[Si](C)(CN)c1ccccc1 | 10.4 |
| O=C(O)c1ccc(O)c2ncccc12 | 4 |
| COC1=CC=C2[C@@H]3Cc4ccc(OC)c5c4[C@]2(CCN3C)[C@@H]1O5 | 8.15 |
| CN1CC1 | 7.86 |
| Oc1onc2c1CCNCC2 | 9.6 |
| O=C([O-])C1CCNC1 (configuration not stated) | 10.7 |
| c1ccc(NC2=NCCCO2)cc1 | 9.33 |
| Nc1cccc2cccnc12 | 4.01 |
| Clc1ccccn1 | 0.72 |
| C[NH2+]CCNCC[NH3+] | 4.64 |
| Cn1cccc1-c1cccnc1 | 4.73 |
| C1C[NH2+]CCSCCN1 | 4.16 |
| CC(=O)N1CCN(C)CC1 | 7.1 |
| COc1ccnnc1 | 3.7 |
| C/C(=C\C=C\C(C)C(=O)[O-])[C@H]1CN[C@H](C(=O)[O-])[C@H]1CC(=O)[O-] (some centres not stated) | 9.82 |
| CCCC[NH2+]CC/C(N)=N/O | 3.75 |
| CCN(C)N(C)CC | 6.8 |
| N[C@H]1C[C@H]2CCCC[C@@H]2C[C@@H]1[NH3+] | 6.68 |
| O=[N+]([O-])c1cccc(Nc2ccccc2)c1 | -1.27 |
| CCc1cnnc(C)c1 | 4.17 |
| CN1C[C@@H](C(=O)[O-])C=C2c3cccc4[nH]cc(c34)C[C@@H]21 | 7.85 |
| O/N=C(/Cc1ccccc1)NO | 4.25 |
